Patent publication US20110130355A1, “USE OF SOPHORICOSIDE IN THE MANUFACTURE OF MEDICAMENTS” (priority 2008, published 2011)
Marks after values point to notes of the source that are not given here.

Columns and labels:
interleukin-5 = details: cited from earlier work
ER-α = test: Immunohistochemical staining of the estrogen receptor of articular chondrocytes, percentage of positive cells; format: in vivo, SD rats; details: OVX rats, 11 weeks; for ER-α positive cells in the articular cartilage, micrograph in words: FIG. 7; for positive ratio for ER-α expression in the articular chondrocytes, Total: whole knee joint
Experimental: 2) Elimination of endogenous peroxidases: The sections were treated with 3% H2O2-methanol for 10 minutes and washed by PBS for 5 minutes×3;
3) Blocking of Antigen: The sections were treated with 0.3% bovine serum albumin (BSA) for 30 minutes;
The sections were incubated at 4° C. overnight and then washed by PBS for 5 minutes×3;
5) Secondary antibody: After the addition of the biotinylated secondary antibody (1:200) the sections were incubated at 37° C. for 30 minutes and then washed by PBS for 5 minutes×3;
6) Addition of SABC (Streptavidin Biotin Complex): After the addition of SABC (1:300) the sections were incubated at 37° C. for 30 minutes and then washed by PBS for 5 minutes×3;
7) Visualization: 75 μl of 3,3′-diaminobenzidine (DAB) was added per section. After incubation for 3-6 minutes, the sections were observed by microscopy;
The average of the percentages for the four regions was regarded as the total positive cell percentage for the indicated knee joint, and the average of the percentages obtained from two persons was regarded as the final experimental result.
The positive cell percentage=number of the positive chondrocytes in the field/total number of the chondrocytes in the field×100%.

[1] = system: carrageenan-induced edema; details: in vivo; cited from earlier work
[2] = Body weights of rats before and after the treatments; format: in vivo, SD rats; details: OVX rats, after treatment (11 weeks)
Experimental: OVX group and the intervention groups: The rats were anesthetized by intraperitoneal injection of 1% pentobarbital sodium at 5 ml/kg. After the onset of anesthesia, the rats were positioned face-down and dehaired at the third lumbar vertebra below the costal arch. The skin was sanitized by benzalkonium bromide and incised by about 1 cm. The subcutaneous tissue and the fascia were incised, and the muscle was bluntly separated. The peritoneum was carefully cut open. White fat was lifted carefully by using tissue forceps inserted to the abdominal cavity through the incision. The fat was gently turned over to expose the quincuncial ovary, which was then ligated by sterile 1 silk thread. The ovary was separated by cutting the oviduct by ophthalmic scissors. After hemostasis by compression, the fat was returned into the abdominal cavity. Subsequently, an incision was made on the opposite side and the same procedures were carried out to excise the ovary on the opposite side. The peritoneum, the fascia, the subcutaneous tissue, and the skin were sutured one by one. The incisions were sanitized. The rats were raised in the clean SPF animal chamber in the Animal Experimental Center of the Shanghai Institutes for Biological Sciences, CAS, with temperature maintained at 24° C., humidity maintained at 40˜60%, and a diurnal rhythm of 12 h/12 h. The rats were supplied with normal food and purified water ad libitum. The vehicle was 1% sodium carboxymethylcellulose (CMC-Na). The sham group and OVX group were administered the vehicle by gavage. Intervention groups were administered the following formulations of active agents dissolved in the vehicle: The rats were sacrificed by cervical dislocation after 11 weeks. Uteri were removed, weighted, and fixed in 4% paraformaldehyde (PFA). The whole right knee joints were removed and fixed in 4% PFA. The rats were weighted, and then sacrificed. The uteri were removed from the rats and determined for wet weights.

articular chondrocytes = test: Apoptotic profiles of articular chondrocytes (TUNEL staining); format: in vivo, SD rats; details: OVX rats, 11 weeks; for apoptotic cells in articular cartilage, in words: FIG. 10; for Apoptotic index of the articular chondrocytes, total: whole knee joint
From the text: When a cell is undergoing apoptosis, the chromosomal DNAs are fragmented in a gradual and staged manner. The chromosomal DNAs are firstly degraded into large fragments of 50-300 kb by endogenous nucleases. Next, about 30% of the chromosomal DNAs were randomly cleaved at internucleosomal regions by the Ca^2+ and Mg^2+ dependent endonucleases to form multimers of 180˜200 bp nucleosomal DNAs. The free 3′-ends resulted from DNA double-strand break or DNA single chain gapping can be labeled by adding a derivative formed by the deoxyribonucleotide and fluorescein, peroxidase, alkaline phosphatase by the terminal deoxynucleotidyl transferase. The apoptotic cells can be detected accordingly. Such methods are generally referred to as terminal deoxynucleotidyl transferase-mediated nick end labeling.
1) Section Dewaxing: The sections were placed in an incubator at 65° C. for 3 hours, and then immersed in xylene for 5 minutes×2, in 100% ethanol for 10 min×2, in 95% ethanol for 5 min×2, in 85% ethanol for 5 minutes, in 75% ethanol for 5 minutes, and in PBS for 5 minutes×2;
2) Pre-treatment: Each of the sections was incubated with 60 μl fresh protease K (20 μg/ml) in a humidified chamber at 37° C. for 20 minutes; and then rinsed with PBS for 2 minutes×2;
3) Elimination of endogenous peroxidases: The sections were treated with 3% H2O2-methanol for 5 minutes and washed by PBS for 5 minutes×2;
4) Equilibration: Each of the sections was rinsed with 75 μl equilibration solution for 10 seconds and decanted, and the residual water was sucked off;
5) Addition of TdT enzyme: […] working solution was added to each of the sections immediately with the […] control untreated, and the sections were placed in a humidified chamber at 37° C. for 1 hour;
6) Quenching: The sections were gently shook in the quenching solution for 15 minutes, and washed by PBS for 3 minutes×3, and decanted gently;
7) Visualization: Each of the sections was incubated with 65 μl antidigoxin-perioxidase in a humidified chamber at room temperature for 30 minutes, and washed by PBS for 2 minutes×4. After incubation with sufficient amount of the perioxidase substrate (75 μl) for 3˜6 minutes, each of the sections was visualized by microscopy;
8) Counterstaining: The sections were rinsed with flowing water for 3 minutes, and subsequently stained by hematoxylin for 10 seconds, then rinsed with flowing water for 10 minutes, immersed in 95% ethanol for 10 minutes×2, immersed in 100% ethanol for 10 minutes×2; placed in xylene for 10 minutes×2; and finally mounted in neutral resin.
The average of the indices for the four regions was regarded as the total apoptotic index for the indicated knee joint, and the average of the indices obtained from two persons was regarded as the final experimental result.
The apoptotic index=number of positive cells in the field/total number of chondrocytes in the field×100%.

O=c1c(-c2ccc(O[C@@H]3O[C@H](CO)[C@@H](O)[C@H](O)[C@H]3O)cc2)coc2cc(O)cc(O)c12 [HDA, 3-[4-(β-D-glucopyranosyl)-benzyl]5,7-dihydro-4H-1-benzopyran-4-one (4′,5,7-trihydroxylisoflavone-4′-D-glucoside)]
inhibition of interleukin-5 (interleukin-5): inhibitor of interleukin-5 | ER-α positive cells in the articular cartilage, micrograph in words (ER-α; sophoricoside 10 mg/kg/day): ER-α positive cells within the superficial layer of articular cartilage were much less | ER-α positive cells in the articular cartilage, micrograph in words (ER-α; sophoricoside 20 mg/kg/day): ER-α positive cells within the superficial layer of articular cartilage were much less | ER-α positive cells in the articular cartilage, micrograph in words (ER-α; sophoricoside 80 mg/kg/day): more than the OVX group and similar to normal articular cartilage | positive ratio for ER-α expression in the articular chondrocytes, Total (ER-α; sophoricoside 10 mg/kg/day): 49.520 ± 1.815^□□ % | positive ratio for ER-α expression in the articular chondrocytes, Total (ER-α; sophoricoside 20 mg/kg/day): 58.624 ± 1.707**^□□ % | positive ratio for ER-α expression in the articular chondrocytes, Total (ER-α; sophoricoside 40 mg/kg/day): 65.074 ± 1.306**^□□ % | positive ratio for ER-α expression in the articular chondrocytes, Total (ER-α; sophoricoside 80 mg/kg/day): 77.730 ± 1.125**^□□ % | carrageenan-induced edema [1]: inhibit | Final body weight ([2]; sophoricoside 10 mg/kg/day): 370.9 ± 5.7 g | Final body weight ([2]; sophoricoside 20 mg/kg/day): 376.2 ± 6.5 g | Final body weight ([2]; sophoricoside 40 mg/kg/day): 372.5 ± 6.8 g | Final body weight ([2]; sophoricoside 80 mg/kg/day): 362.8 ± 3.4 g | apoptotic cells in articular cartilage, in words (articular chondrocytes; sophoricoside 20 mg/kg/day): The interventions other than HAD20 decreased the apoptotic chondrocytes | apoptotic cells in articular cartilage, in words (articular chondrocytes; sophoricoside 40 mg/kg/day): weaker | apoptotic cells in articular cartilage, in words (articular chondrocytes; sophoricoside 80 mg/kg/day): less than OVX group and similar to normal articular cartilage | Apoptotic index of the articular chondrocytes, lateral femur (articular chondrocytes; sophoricoside 20 mg/kg/day): 10.269 ± 1.313^□ % | Apoptotic index of the articular chondrocytes, lateral tibia (articular chondrocytes; sophoricoside 20 mg/kg/day): 12.571 ± 1.226^□□ % | Apoptotic index of the articular chondrocytes, medial femur (articular chondrocytes; sophoricoside 20 mg/kg/day): 14.779 ± 1.819^□□ % | Apoptotic index of the articular chondrocytes, medial tibia (articular chondrocytes; sophoricoside 20 mg/kg/day): 13.125 ± 1.891^□□ % | Apoptotic index of the articular chondrocytes, lateral femur (articular chondrocytes; sophoricoside 40 mg/kg/day): 7.991 ± 0.943% | Apoptotic index of the articular chondrocytes, lateral tibia (articular chondrocytes; sophoricoside 40 mg/kg/day): 7.665 ± 0.976**^□ % | Apoptotic index of the articular chondrocytes, medial femur (articular chondrocytes; sophoricoside 40 mg/kg/day): 10.779 ± 1.159% | Apoptotic index of the articular chondrocytes, medial tibia (articular chondrocytes; sophoricoside 40 mg/kg/day): 9.581 ± 0.760*^□ % | Apoptotic index of the articular chondrocytes, lateral femur (articular chondrocytes; sophoricoside 80 mg/kg/day): 5.253 ± 0.923 % | Apoptotic index of the articular chondrocytes, lateral tibia (articular chondrocytes; sophoricoside 80 mg/kg/day): 5.509 ± 0.847 % | Apoptotic index of the articular chondrocytes, medial femur (articular chondrocytes; sophoricoside 80 mg/kg/day): 7.410 ± 0.872 % | Apoptotic index of the articular chondrocytes, medial tibia (articular chondrocytes; sophoricoside 80 mg/kg/day): 6.558 ± 1.121 % | Apoptotic index of the articular chondrocytes, total (articular chondrocytes; sophoricoside 20 mg/kg/day): 12.711 ± 1.178^□□ % | Apoptotic index of the articular chondrocytes, total (articular chondrocytes; sophoricoside 40 mg/kg/day): 9.004 ± 0.588**^□ % | Apoptotic index of the articular chondrocytes, total (articular chondrocytes; sophoricoside 80 mg/kg/day): 6.183 ± 0.738 %
